The results in this text go back to US8324390B2, “Tetrazole-substituted anthranilamides as pesticides” (Bayer CropScience AG, priority 2008, dated 2012).

Molecules are shown by their SMILES. Like-named read-outs stand apart in the source and are kept apart here.

Series [1] relates to green peach aphid (Myzus persicae). As to the kind of experiment: Myzus test (MYZUPE spray treatment). In kind it is in vivo. The settings on record: Myzus persicae, foliar, read-out: effect in % (aphids killed). An excerpt:
Solvent: 78 parts by weight of acetone
(§1) Solvent: 78.0 parts by weight of acetone

For series [2], the system named is caterpillars of the armyworm (Spodoptera frugiperda). Briefly: Spodoptera frugiperda test (SPODFR spray treatment). The settings on record: Spodoptera frugiperda, foliar, read-out: effect in % (caterpillars killed). It is filed as in vivo.
Text: as §1

Series [3] in a line: log P determination by HPLC (EEC Directive 79/831 Annex V.A8). It is filed as physicochemical. The procedure:
The measurements were carried out using an Agilent 1100 LC system with a 50*4.6 Zorbax Eclipse C18 1.8 μm column (oven temperature 55° C., flow rate 2.0 ml/min).
The following mobile phases were used:
Mobile phase A: acetonitrile+1000 μl of formic acid/l
Mobile phase B: Millipore water+900 μl of formic acid/l

Series [4] has as its system larvae of the mustard beetle (Phaedon cochleariae). Briefly: Phaedon test (PHAECO spray treatment). The settings on record: Phaedon cochleariae, in Brassica rapa, foliar, read-out: effect in % (beetle larvae killed).
Where [5] appears, read: application rate 100 g/ha, Chinese cabbage leaf discs.
Where [6] appears, read: application rate 100 g/ha, maize leaf discs.
Setting [7] is: reversed-phase HPLC, Zorbax Eclipse C18 column, determined by HPLC according to EEC Directive 79/831 Annex V.A8, read-out: log P.
Where [8] appears, read: reversed-phase HPLC, Zorbax Eclipse C18 column, by HPLC according to EEC Directive 79/831 Annex V.A8, read-out: log P.

With `CNC(=O)c1cc(Br)cc(C)c1NC(=O)c1cc(Cn2nnnc2C(F)(F)F)nn1-c1ncccc1Cl` [Example 170], the pest or weed control at 100 g/ha in series [1] (in Brassica rapa), in series [2] (in Zea mays) and in series [4] was at least 80% each time. This compound also returned a chromatographic logP in series [3] (log P) of 2.72.
As to `CC(NC(=O)c1cc(Cl)cc(Cl)c1NC(=O)c1cc(Cn2nnnc2C(F)(F)C(F)(F)F)nn1-c1ncccc1Cl)C1CC1` (centres unmarked) [Example 448], the pest or weed control at 100 g/ha in series [1] (in Brassica rapa), in series [2] (in Zea mays) and in series [4] was at least 80% each time. Further, the chromatographic logP in series [3] (log P) was 3.81.
Turning to `Cc1cc(C#N)cc(C(=O)NC(C2CC2)C2CC2)c1NC(=O)c1cc(Cn2nnnc2C(F)(F)F)nn1-c1ncccc1Cl` [Example 196], the pest or weed control at 100 g/ha in series [1] (in Brassica rapa), in series [2] (in Zea mays) and in series [4] was at least 80% in each case. Moreover, the chromatographic logP in series [3] (log P) was determined as 3.28.
For the compound `CNC(=O)c1cc(Cl)cc(C)c1NC(=O)c1cc(Cn2nnc(C3CC3)n2)nn1-c1ncccc1Cl` [Example 104], the pest or weed control at 100 g/ha in series [1] (in Brassica rapa), in series [2] (in Zea mays) and in series [4] was at least 80% in each case. In series [3] (log P), the chromatographic logP worked out at 2.52.
In the case of `COC(C)(C)CNC(=O)c1cc(C#N)cc(C)c1NC(=O)c1cc(Cn2nnc(C(F)(F)F)n2)nn1-c1ncccc1Cl` [Example 95], the pest or weed control at 100 g/ha in series [1] (in Brassica rapa), in series [2] (in Zea mays) and in series [4] was at least 80% in each case. Moreover, in series [3] (log P), the chromatographic logP is 3.12.
`Cc1cc(C#N)cc(C(=O)NC2CC2)c1NC(=O)c1cc(Cn2nnc(C(F)(F)C(F)(F)F)n2)nn1-c1ncccc1Cl` [Example 214]: the pest or weed control at 100 g/ha in series [1] (in Brassica rapa), in series [2] (in Zea mays) and in series [4] was at least 80% each time. In addition, in series [3] (log P), the chromatographic logP was determined as 3.26.
Consider `CNC(=O)c1cc(C)cc(C)c1NC(=O)c1cc(Cn2nnc(C(F)(F)F)n2)nn1-c1ncccc1Cl` [Example 78], for which the pest or weed control at 100 g/ha in series [1] (in Brassica rapa), in series [2] (in Zea mays) and in series [4] was at least 80% each time. For the same compound, the chromatographic logP in series [3] (log P) stood at 2.81.
In the case of `Cc1cc(F)cc(C(=O)NC(C)C2CC2)c1NC(=O)c1cc(Cn2nnc(C(F)(F)F)n2)nn1-c1ncccc1Cl` (centres unmarked) [Example 32], the pest or weed control at 100 g/ha in series [1] (in Brassica rapa), in series [2] (in Zea mays) and in series [4] was at least 80% each time. In series [3] (log P), the chromatographic logP was 3.41.
Consider `Cc1cc(C#N)cc(C(=O)NC(C)C)c1NC(=O)c1cc(Cn2nnnc2C(F)(F)F)nn1-c1ccccc1Cl` [Example 491], for which the pest or weed control at 100 g/ha in series [1] (setting [5]), in series [2] (setting [6]) and in series [4] was at least 80% in each case. The chromatographic logP in series [3] (setting [7]) is 3.25.
`CNC(=O)c1cc(Cl)cc(C)c1NC(=O)c1cc(Cn2nnnc2C(F)F)nn1-c1ncccc1Cl` [Example 470]: the pest or weed control at 100 g/ha in series [1] (in Brassica rapa), in series [2] (in Zea mays) and in series [4] was at least 80% throughout. In addition, the chromatographic logP in series [3] (log P) amounted to 2.26.
Turning to `Cc1cc(C#N)cc(C(=O)NC(C)C2CC2)c1NC(=O)c1cc(Cn2nnc(C(F)F)n2)nn1-c1ncccc1Cl` (centres unmarked) [Example 263], the pest or weed control at 100 g/ha in series [1] (in Brassica rapa), in series [2] (in Zea mays) and in series [4] was at least 80% in each case. The compound further gave a chromatographic logP in series [3] (log P) of 2.86.
As for `Cc1cc(Cl)cc(C(=O)NC(C)(C)C)c1NC(=O)c1cc(Cn2nnnc2C(F)(F)C(F)(F)F)nn1-c1ncccc1Cl` [Example 443], the pest or weed control at 100 g/ha in series [1] (in Brassica rapa), in series [2] (in Zea mays) and in series [4] was at least 80% in each case. This compound had a chromatographic logP in series [3] (log P) of 3.92.
As to `Cc1cc(Cl)cc(C(=O)NC(C)C)c1NC(=O)c1cc(Cn2nnnc2C(F)(F)C(F)(F)F)nn1-c1ncccc1Cl` [Example 201], the pest or weed control at 100 g/ha in series [1] (in Brassica rapa), in series [2] (in Zea mays) and in series [4] was at least 80% throughout. In series [3] (log P), this compound had a chromatographic logP of 3.59.
As for `CNC(=O)c1cc(Cl)cc(C)c1NC(=O)c1cc(C(C)n2nnc(C(F)(F)F)n2)nn1-c1ncccc1Cl` (centres unmarked) [Example 543], the pest or weed control at 100 g/ha in series [1] (in Brassica rapa), in series [2] (in Zea mays) and in series [4] was at least 80% throughout. This compound had a chromatographic logP in series [3] (log P) of 3.26.
On to `Cc1cc(Cl)cc(C(=O)NCC2CC2)c1NC(=O)c1cc(Cn2nnc(C(F)F)n2)nn1-c1ncccc1Cl` [Example 259], for which the pest or weed control at 100 g/ha in series [1] (in Brassica rapa), in series [2] (in Zea mays) and in series [4] was at least 80% in each case. The compound also returned a chromatographic logP in series [3] (log P) of 3.04.
Turning to `Cc1cc(C#N)cc(C(=O)NC(C)(C)C)c1NC(=O)c1cc(Cn2nnc(C3CC3)n2)nn1-c1ncccc1Cl` [Example 105], the pest or weed control at 100 g/ha in series [1] (in Brassica rapa), in series [2] (in Zea mays) and in series [4] was at least 80% in each case. The chromatographic logP in series [3] (log P) was found to be 2.93.
Turning to `CCC(C)NC(=O)c1cc(C#N)cc(C)c1NC(=O)c1cc(Cn2nnc(C(F)(F)F)n2)nn1-c1ncccc1Cl` (centres unmarked) [Example 97], the pest or weed control at 20 g/ha in series [1] (in Brassica rapa) was at least 80%. Besides, the pest or weed control at 100 g/ha in series [2] (in Zea mays) and in series [4] was at least 80% each time. The chromatographic logP in series [3] (log P) was 3.32.
As to `CNC(=O)c1cc(F)cc(C)c1NC(=O)c1cc(Cn2nnc(C(F)(F)F)n2)nn1-c1ncccc1Cl` [Example 29], the pest or weed control at 100 g/ha in series [1] (in Brassica rapa), in series [2] (in Zea mays) and in series [4] was at least 80% each time. The chromatographic logP in series [3] (log P) stood at 2.66.
On to `Cc1cc(C#N)cc(C(N)=O)c1NC(=O)c1cc(C(C)n2nnc(C(F)(F)F)n2)nn1-c1ncccc1Cl` (centres unmarked) [Example 437], for which the pest or weed control at 100 g/ha in series [1] (in Brassica rapa), in series [2] (in Zea mays) and in series [4] was at least 80% throughout. The chromatographic logP in series [3] (log P) turned out to be 2.66.
With `Cc1cc(Br)cc(C(=O)NC2CC2)c1NC(=O)c1cc(Cn2nnnc2C(F)(F)F)nn1-c1ncccc1Cl` [Example 181], the pest or weed control at 100 g/ha in series [1] (in Brassica rapa), in series [2] (in Zea mays) and in series [4] was at least 80% each time. Moreover, the chromatographic logP in series [3] (log P) came out at 2.99.
Regarding `Cc1cc(I)cc(C(N)=O)c1NC(=O)c1cc(Cn2nnc(C(F)F)n2)nn1-c1ncccc1Cl` [Example 272], the pest or weed control at 100 g/ha in series [1] (in Brassica rapa), in series [2] (in Zea mays) and in series [4] was at least 80% each time. Further, the chromatographic logP in series [3] (log P) is 2.53.
Turning to `CCNC(=O)c1cc(C#N)cc(C)c1NC(=O)c1cc(Cn2nnnc2C(F)(F)F)nn1-c1ncccc1Cl` [Example 191], the pest or weed control at 100 g/ha in series [1] (in Brassica rapa), in series [2] (in Zea mays) and in series [4] was at least 80% throughout. For the same compound, the chromatographic logP in series [3] (log P) is 2.5.
In the case of `CNC(=O)c1cc(C#N)cc(C)c1NC(=O)c1cc(Cn2nnnc2C(F)(F)C(F)(F)F)nn1-c1ncccc1Br` [Example 516], the pest or weed control at 100 g/ha in series [1] (setting [5]), in series [2] (setting [6]) and in series [4] was at least 80% throughout. In series [3] (setting [7]), the chromatographic logP amounted to 2.72.
In the case of `CNC(=O)c1cc(C#N)cc(C)c1NC(=O)c1cc(Cn2nnc(C(F)(F)F)n2)nn1-c1ccccc1Cl` [Example 310], the pest or weed control at 100 g/ha in series [1] (setting [5]), in series [2] (setting [6]) and in series [4] was at least 80% in each case. In series [3] (setting [8]), the chromatographic logP is 3.09.
Consider `CNC(=O)c1cc(Cl)cc(C)c1NC(=O)c1cc(Cn2nnc(C(F)(F)F)n2)nn1-c1cc(Cl)ccc1Cl` [Example 313], for which the pest or weed control at 100 g/ha in series [1] (setting [5]), in series [2] (setting [6]) and in series [4] was at least 80% in each case. Also, in series [3] (setting [8]), the chromatographic logP is 3.93.
As for `CSC[C@H](C)NC(=O)c1cc(Cl)cc(Cl)c1NC(=O)c1cc(Cn2nnc(C(F)(F)C(F)(F)F)n2)nn1-c1ncccc1Cl` [Example 154], the pest or weed control at 100 g/ha in series [1] (in Brassica rapa), in series [2] (in Zea mays) and in series [4] was at least 80% each time. Besides, in series [3] (log P), the chromatographic logP was found to be 4.02.
On to `CC(C)NC(=O)c1cc(Cl)cc(Cl)c1NC(=O)c1cc(Cn2nnc(C(F)(F)C(F)(F)F)n2)nn1-c1ncccc1Cl` [Example 153], for which the pest or weed control at 100 g/ha in series [1] (in Brassica rapa), in series [2] (in Zea mays) and in series [4] was at least 80% in each case. The compound also registered a chromatographic logP in series [3] (log P) of 3.81.
For the compound `Cc1cc(Br)cc(C(=O)NC(C)(C)C)c1NC(=O)c1cc(Cn2nnnc2C(F)(F)F)nn1-c1ncccc1Br` [Example 507], the pest or weed control at 100 g/ha in series [1] (setting [5]), in series [2] (setting [6]) and in series [4] was at least 80% each time. Also, the chromatographic logP in series [3] (setting [7]) turned out to be 3.65.
In the case of `Cc1cc(C#N)cc(C(=O)NCC#N)c1NC(=O)c1cc(Cn2nnc(C(F)F)n2)nn1-c1ncccc1Cl` [Example 271], the pest or weed control at 100 g/ha in series [1] (in Brassica rapa), in series [2] (in Zea mays) and in series [4] was at least 80% in each case. This compound gave a chromatographic logP in series [3] (log P) of 2.19.
